Tests used:
Test in all cases: relative viability (nuclei count vs DMSO), 5 days (fraction); higher = more cells survive
NCI-H1792 = test system: NCI-H1792
In short: (§1)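 Relative viability equals treated-well nuclei counts divided by vehicle-well nuclei counts. Counts came from 4× images of lung cancer cell lines grown in 1536-well plates for 5 days after pin-tool dosing on the day after seeding. Dosing used one drug alone or a fixed anchor-drug dose plus five library-drug doses (not always all listed) in √10 steps, and values are medians of duplicate plates.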

NCI-H2405 = test system: NCI-H2405
In short: as §1

HCC-44 = test system: HCC-44
In short: as §1

UMC-11 = test system: UMC-11
In short: as §1

NCI-H838 = test system: NCI-H838
In short: as §1

NCI-H520 = test system: NCI-H520
In short: as §1

LC-2-ad = test system: LC-2-ad
In short: as §1

CAL-12T = test system: CAL-12T
In short: as §1

NCI-H1395 = test system: NCI-H1395
In short: as §1

LCLC-97TM1 = test system: LCLC-97TM1
In short: as §1

SW 1573 = test system: SW 1573
In short: as §1

NCI-H1734 = test system: NCI-H1734
In short: as §1

EPLC-272H = test system: EPLC-272H
In short: as §1

COR-L 105 = test system: COR-L 105
In short: as §1

NCI-H1975 = test system: NCI-H1975
In short: as §1

HCC-15 = test system: HCC-15
In short: as §1

NCI-H2347 = test system: NCI-H2347
In short: as §1

NCI-H2023 = test system: NCI-H2023
In short: as §1

NCI-H1915 = test system: NCI-H1915
In short: as §1

A-427 = test system: A-427
In short: as §1

SMILES: Cc1csc(=NC2CCCCC2)n1/N=C/c1ccc(O)c(O)c1O [MIM1] + CC1(C)CCC(c2ccc(Cl)cc2)=C(CN2CCN(c3ccc(C(=O)NS(=O)(=O)c4ccc(N[C@H](CCN5CCOCC5)CSc5ccccc5)c(S(=O)(=O)C(F)(F)F)c4)cc3)CC2)C1 [Navitoclax] (partner 0.5 µM)
- relative viability (NCI-H1792; first compound 0.2 µM): 0.59
- relative viability (NCI-H1792; first compound 0.6325 µM): 0.484
- relative viability (NCI-H1792; first compound 2 µM): 0.559
- relative viability (NCI-H1792; first compound 6.325 µM): 0.501
- relative viability (NCI-H1792; first compound 20 µM): 0.245
- relative viability (NCI-H2405; first compound 0.2 µM): 0.946
- relative viability (NCI-H2405; first compound 0.6325 µM): 0.999
- relative viability (NCI-H2405; first compound 2 µM): 0.884
- relative viability (NCI-H2405; first compound 6.325 µM): 0.798
- relative viability (NCI-H2405; first compound 20 µM): 0.35
- relative viability (HCC-44; first compound 0.2 µM): 0.93
- relative viability (HCC-44; first compound 0.6325 µM): 1.01
- relative viability (HCC-44; first compound 2 µM): 0.74
- relative viability (HCC-44; first compound 6.325 µM): 0.612
- relative viability (HCC-44; first compound 20 µM): 0.277
- relative viability (UMC-11; first compound 0.2 µM): 0.32
- relative viability (UMC-11; first compound 0.6325 µM): 0.298
- relative viability (UMC-11; first compound 2 µM): 0.36
- relative viability (UMC-11; first compound 6.325 µM): 0.208
- relative viability (UMC-11; first compound 20 µM): 0.145
- relative viability (NCI-H838; first compound 0.2 µM): 1.12
- relative viability (NCI-H838; first compound 0.6325 µM): 1.3
- relative viability (NCI-H838; first compound 2 µM): 0.994
- relative viability (NCI-H838; first compound 6.325 µM): 0.902
- relative viability (NCI-H838; first compound 20 µM): 0.501
- relative viability (NCI-H520; first compound 0.2 µM): 1.08
- relative viability (NCI-H520; first compound 0.6325 µM): 1.06
- relative viability (NCI-H520; first compound 2 µM): 1.06
- relative viability (NCI-H520; first compound 6.325 µM): 0.832
- relative viability (NCI-H520; first compound 20 µM): 0.517
- relative viability (LC-2-ad; first compound 0.2 µM): 0.491
- relative viability (LC-2-ad; first compound 0.6325 µM): 0.516
- relative viability (LC-2-ad; first compound 2 µM): 0.498
- relative viability (LC-2-ad; first compound 6.325 µM): 0.251
- relative viability (LC-2-ad; first compound 20 µM): 0.135
- relative viability (CAL-12T; first compound 0.2 µM): 1.13
- relative viability (CAL-12T; first compound 0.6325 µM): 1.36
- relative viability (CAL-12T; first compound 2 µM): 1.15
- relative viability (CAL-12T; first compound 6.325 µM): 0.731
- relative viability (CAL-12T; first compound 20 µM): 0.945
- relative viability (NCI-H1395; first compound 0.2 µM): 1.06
- relative viability (NCI-H1395; first compound 0.6325 µM): 1.1
- relative viability (NCI-H1395; first compound 2 µM): 1.63
- relative viability (NCI-H1395; first compound 6.325 µM): 0.646
- relative viability (NCI-H1395; first compound 20 µM): 0.425
- relative viability (LCLC-97TM1; first compound 0.2 µM): 0.567
- relative viability (LCLC-97TM1; first compound 0.6325 µM): 0.398
- relative viability (LCLC-97TM1; first compound 2 µM): 0.397
- relative viability (LCLC-97TM1; first compound 6.325 µM): 0.48
- relative viability (LCLC-97TM1; first compound 20 µM): 0.203
- relative viability (SW 1573; first compound 0.2 µM): 0.973
- relative viability (SW 1573; first compound 0.6325 µM): 0.967
- relative viability (SW 1573; first compound 2 µM): 1.08
- relative viability (SW 1573; first compound 6.325 µM): 0.909
- relative viability (SW 1573; first compound 20 µM): 0.549
- relative viability (NCI-H1734; first compound 0.2 µM): 0.807
- relative viability (NCI-H1734; first compound 0.6325 µM): 0.908
- relative viability (NCI-H1734; first compound 2 µM): 0.783
- relative viability (NCI-H1734; first compound 6.325 µM): 0.467
- relative viability (NCI-H1734; first compound 20 µM): 0.202
- relative viability (EPLC-272H; first compound 0.2 µM): 1.11
- relative viability (EPLC-272H; first compound 0.6325 µM): 1.04
- relative viability (EPLC-272H; first compound 2 µM): 1.2
- relative viability (EPLC-272H; first compound 6.325 µM): 1
- relative viability (EPLC-272H; first compound 20 µM): 0.199
- relative viability (COR-L 105; first compound 0.2 µM): 0.78
- relative viability (COR-L 105; first compound 0.6325 µM): 0.8
- relative viability (COR-L 105; first compound 2 µM): 0.732
- relative viability (COR-L 105; first compound 6.325 µM): 0.628
- relative viability (COR-L 105; first compound 20 µM): 0.54
- relative viability (NCI-H1975; first compound 0.2 µM): 1.16
- relative viability (NCI-H1975; first compound 0.6325 µM): 1.23
- relative viability (NCI-H1975; first compound 2 µM): 1.04
- relative viability (NCI-H1975; first compound 6.325 µM): 0.732
- relative viability (NCI-H1975; first compound 20 µM): 0.761
- relative viability (HCC-15; first compound 0.2 µM): 0.682
- relative viability (HCC-15; first compound 0.6325 µM): 0.693
- relative viability (HCC-15; first compound 2 µM): 0.689
- relative viability (HCC-15; first compound 6.325 µM): 0.42
- relative viability (HCC-15; first compound 20 µM): 0.382
- relative viability (NCI-H2347; first compound 0.2 µM): 0.661
- relative viability (NCI-H2347; first compound 0.6325 µM): 0.776
- relative viability (NCI-H2347; first compound 2 µM): 0.812
- relative viability (NCI-H2347; first compound 6.325 µM): 0.544
- relative viability (NCI-H2347; first compound 20 µM): 0.408
- relative viability (NCI-H2023; first compound 0.2 µM): 0.992
- relative viability (NCI-H2023; first compound 0.6325 µM): 1.03
- relative viability (NCI-H2023; first compound 2 µM): 0.91
- relative viability (NCI-H2023; first compound 6.325 µM): 0.683
- relative viability (NCI-H2023; first compound 20 µM): 0.432
- relative viability (NCI-H1915; first compound 0.2 µM): 0.791
- relative viability (NCI-H1915; first compound 0.6325 µM): 0.696
- relative viability (NCI-H1915; first compound 2 µM): 0.781
- relative viability (NCI-H1915; first compound 6.325 µM): 0.62
- relative viability (NCI-H1915; first compound 20 µM): 0.656
- relative viability (A-427; first compound 0.2 µM): 0.972
- relative viability (A-427; first compound 0.6325 µM): 1.02
- relative viability (A-427; first compound 2 µM): 0.981
- relative viability (A-427; first compound 6.325 µM): 0.986
- relative viability (A-427; first compound 20 µM): 0.555
